According to PubChem BioAssay (NCI):
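Values below derive from 48-hour exposures of cells grown in 96-well plates, with endpoints linearly interpolated between the two concentrations bracketing the appropriate inhibition level. Here, GI50 denotes the concentration required for 50% inhibition of growth. At the TGI there is no net growth.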

Legend:
Experiment in all cases: inhibition of tumour cell growth, NCI panel, 48 h
DU-145 prostate = test system: DU-145 prostate
SF-295 CNS = test system: SF-295 CNS
TK-10 renal = test system: TK-10 renal
PC-3 prostate = test system: PC-3 prostate
HT29 colon = test system: HT29 colon
SK-MEL-28 melanoma = test system: SK-MEL-28 melanoma
UACC-62 melanoma = test system: UACC-62 melanoma
U251 CNS = test system: U251 CNS
HCC-2998 colon = test system: HCC-2998 colon
HL-60(TB) leukemia = test system: HL-60(TB) leukemia

With `O=C(N/N=C\c1cccc2ccccc12)Nc1ccccc1` the TGI (DU-145 prostate) was over 100 µM, the TGI (SF-295 CNS) was over 100 µM and the TGI (TK-10 renal) was over 100 µM. It also gave a TGI (PC-3 prostate) of over 100 µM, a TGI (HT29 colon) of over 100 µM and a TGI (SK-MEL-28 melanoma) of over 100 µM. For the same compound, the TGI (UACC-62 melanoma) was over 100 µM and the TGI (U251 CNS) was over 100 µM.
In the case of `c1cc2c3c(c1)c1cc4c(cc1c[n+]3CC2)OCO4`, the TGI (HCC-2998 colon) was 10.4 µM, the TGI (SF-295 CNS) was 13.1 µM and the TGI (HL-60(TB) leukemia) was 24.7 µM. The TGI (HT29 colon) was 67 µM, the TGI (SK-MEL-28 melanoma) was 12.3 µM and the TGI (UACC-62 melanoma) was 16 µM. For the same compound, the TGI (U251 CNS) was 18.8 µM.
`CCc1ccc2[nH]c(O)c(C3=Nc4ccccc4C3=O)c2c1` gave a TGI (DU-145 prostate) of over 100 µM, a TGI (HCC-2998 colon) of 53.2 µM and a TGI (SF-295 CNS) of 61.2 µM. The TGI (TK-10 renal) was 37 µM, the TGI (PC-3 prostate) was 50.1 µM and the TGI (HT29 colon) was over 100 µM. For the same compound, the TGI (SK-MEL-28 melanoma) was over 100 µM, the TGI (UACC-62 melanoma) was 43.3 µM and the TGI (U251 CNS) was 38.2 µM.
`O=C(NN1C(=O)C(Cl)C1c1cccc([N+](=O)[O-])c1)c1ccccc1O` (stereo not given) gave a TGI (SF-295 CNS) of over 100 µM, a TGI (TK-10 renal) of over 100 µM and a TGI (HL-60(TB) leukemia) of over 100 µM. The TGI (HT29 colon) was over 100 µM, the TGI (SK-MEL-28 melanoma) was over 100 µM and the TGI (UACC-62 melanoma) was over 100 µM. The TGI (U251 CNS) was over 100 µM.
Compound `CCOc1cc(/C=C/C(=O)C(C(=O)/C=C/c2ccc(OC(=O)CNc3nc4ccccc4[nH]3)c(OCC)c2)C(=O)CNc2nc3ccccc3[nH]2)ccc1OC(=O)CNc1nc2ccccc2[nH]1` has a GI50 (DU-145 prostate) of 1.7 µM, a TGI (DU-145 prostate) of 3.72 µM and a GI50 (HCC-2998 colon) of 1.69 µM. For the same compound, the TGI (HCC-2998 colon) was 3.22 µM, the GI50 (SF-295 CNS) was 7.86 µM and the TGI (SF-295 CNS) was 22.7 µM. It also gave a GI50 (TK-10 renal) of 3.24 µM, a TGI (TK-10 renal) of 14.2 µM and a GI50 (PC-3 prostate) of 2.12 µM. The TGI (PC-3 prostate) was 6.23 µM, the GI50 (HL-60(TB) leukemia) was 1.62 µM and the TGI (HL-60(TB) leukemia) was 3.61 µM. For the same compound, the GI50 (HT29 colon) was 1.29 µM, the TGI (HT29 colon) was 2.56 µM and the GI50 (SK-MEL-28 melanoma) was 1.77 µM. The TGI (SK-MEL-28 melanoma) was 3.56 µM, the GI50 (UACC-62 melanoma) was 1.9 µM and the TGI (UACC-62 melanoma) was 3.98 µM. The GI50 (U251 CNS) was 1.94 µM and the TGI (U251 CNS) was 4.34 µM.
Compound `O=c1[nH]c(SCc2cccc([N+](=O)[O-])c2)nc2nc[nH]c12` has a TGI (DU-145 prostate) of over 100 µM, a TGI (SF-295 CNS) of over 100 µM and a TGI (TK-10 renal) of over 100 µM. The TGI (PC-3 prostate) was over 100 µM, the TGI (HL-60(TB) leukemia) was over 100 µM and the TGI (HT29 colon) was over 100 µM. The TGI (SK-MEL-28 melanoma) was over 100 µM, the TGI (UACC-62 melanoma) was over 100 µM and the TGI (U251 CNS) was over 100 µM.
For `Oc1[nH]c2ccccc2c1C1=Nc2ccccc2/C1=N\OCCOC1OCC(O)C(O)C1O` (stereo not given), the TGI (DU-145 prostate) was over 100 µM, the TGI (HCC-2998 colon) was over 100 µM and the TGI (SF-295 CNS) was over 100 µM. It also gave a TGI (TK-10 renal) of over 100 µM, a TGI (PC-3 prostate) of over 100 µM and a TGI (HL-60(TB) leukemia) of over 100 µM. The TGI (HT29 colon) was over 100 µM, the TGI (SK-MEL-28 melanoma) was over 100 µM and the TGI (UACC-62 melanoma) was over 100 µM. The TGI (U251 CNS) was over 100 µM.
